Measured values from patent publication US9079859B2, “Synthetic lethal targeting of glucose transport” (AUCKLAND UNISERVICES LIMITED, priority 2011, dated 2015).

What was measured:
[1] = test system: RCC4 cells with HIF-1β silenced; assay: Glucose uptake in RCC4 cells with siRNA to HIF-1β; format: cell-based
Description: To further investigate the relationship between HIF and STF-31 toxicity, we silenced HIF-1β in RCC4 cells and assessed its affect on glucose uptake (FIG. 6D). Transiently inhibiting HIF-1β, the constitutively expressed binding partner of HIF-1α and HIF-2α reduces HIF activity in RCC4 cells to the levels found in wild-type VHL cells. Glucose uptake was insensitive to treatment with STF-31 when the HIF-1β was silenced in RCC4 cells, further supporting the concept that the HIF-dependent glucose uptake was responsible for the differential toxicity of STF-31 to VHL-deficient renal carcinomas (FIG. 2E).
Glucose Uptake. One hundred thousand cells were plated per well in a six-well plate. The next day, cells were treated with the indicated concentration of drug and incubated for the indicated time. Cells were then washed twice with phosphate-buffered saline, incubated in low-glucose medium for 30 minutes, and 3H-2-deoxyglucose (0.5 μCi) was added in 1 ml of glucose-free media for an additional hour. Cells were washed twice in PBS and lysed (0.2 N NaOH and 0.2% sodium dodecyl sulfate). Glucose uptake was quantified with a scintillation counter.

RCC4 = assay: RCC panel sensitivity (Table 2); format: cell-based; settings: RCC4, VHL mutant
Abl = target: T1, Abl (Homo sapiens, UniProt P00519); assay: Kinase Profiler; format: biochemical; settings: STF-31 10 μM
T1 construct: purchased Millipore (Kinase Profiler service)
Procedure: (§1) Cell Culture and Reagents. All cells were grown in DMEM+10% FCS. ACHN and ACHN shVHL were a kind gift from George V. Thomas (UCLA). HIF overexpressing clones were described previously (Sutphin et al., Cancer Res, 67:5896-5905 (2007)). Transfection of RNA oligos were performed with DnarmaFECT Reagent 1 (Dharmcon), according to manufacturer's directions. ON-TARGETplus SMART pools against HIF-1 R/ARNT were purchased from Dharmacon. Inducible shRNAmir to GLUT1 was purchased from Open Biosystems. GLUT1 was detected with anti-GLUT1 antibody from NeoMarkers/LabVision/Fisher. For immunofluorescent studies, GLUT1, GLUT2, and GLUT3 antibodies were purchased from R&D. Pyruvate/lactate levels and hexokinase activity were both measured by fluorometric assay (BioVision and Sigma-Aldrich, respectively). ATP levels were measured by bioluminescence assay (ATP Determination Kit from Molecular Probes/Invitrogen). In vitro kinase activities were performed by Millipore Kinase Profiler.

CDK6/cyclinD3 = target: T2, CDK6/cyclinD3 (Homo sapiens, UniProt Q00534); assay: Kinase Profiler; format: biochemical; settings: STF-31 10 μM
T2 construct: purchased Millipore (Kinase Profiler service)
Procedure: as §1

CHK1 = target: T3, CHK1 (Homo sapiens, UniProt O14757); assay: Kinase Profiler; format: biochemical; settings: STF-31 10 μM
T3 construct: purchased Millipore (Kinase Profiler service)
Procedure: as §1

Flt3 = target: T4, Flt3 (Homo sapiens, UniProt P36888); assay: Kinase Profiler; format: biochemical; settings: STF-31 10 μM
T4 construct: purchased Millipore Kinase Profiler
Procedure: as §1

JNK1α1 = target: T5, JNK1α1 (Homo sapiens, UniProt P45983); assay: Kinase Profiler; format: biochemical; settings: STF-31 10 μM
T5 construct: purchased Millipore Kinase Profiler
Procedure: as §1

PDK1 = target: T6, PDK1 (Homo sapiens, UniProt O15530); assay: Kinase Profiler; format: biochemical; settings: STF-31 10 μM
T6 construct: purchased Millipore Kinase Profiler
Procedure: as §1

PKA = target: T7, PKA (Homo sapiens, UniProt P17612); assay: Kinase Profiler; format: biochemical; settings: STF-31 10 μM
T7 construct: purchased Millipore Kinase Profiler
Procedure: as §1

Rsk1 = target: T8, Rsk1 (Homo sapiens, UniProt Q15418); assay: Kinase Profiler; format: biochemical; settings: STF-31 10 μM
T8 construct: purchased Millipore (Kinase Profiler service)
Procedure: as §1

Syk = target: T9, Syk (Homo sapiens, UniProt P43405); assay: Kinase Profiler; format: biochemical; settings: STF-31 10 μM
T9 construct: purchased Millipore (Kinase Profiler service)
Procedure: as §1

c-RAF = target: T10, c-RAF (Homo sapiens, UniProt P04049); assay: Kinase Profiler; format: biochemical; settings: STF-31 10 μM
T10 construct: purchased Millipore (Kinase Profiler service)
Procedure: as §1

T3 sequence (O14757 whole entry, species assumed): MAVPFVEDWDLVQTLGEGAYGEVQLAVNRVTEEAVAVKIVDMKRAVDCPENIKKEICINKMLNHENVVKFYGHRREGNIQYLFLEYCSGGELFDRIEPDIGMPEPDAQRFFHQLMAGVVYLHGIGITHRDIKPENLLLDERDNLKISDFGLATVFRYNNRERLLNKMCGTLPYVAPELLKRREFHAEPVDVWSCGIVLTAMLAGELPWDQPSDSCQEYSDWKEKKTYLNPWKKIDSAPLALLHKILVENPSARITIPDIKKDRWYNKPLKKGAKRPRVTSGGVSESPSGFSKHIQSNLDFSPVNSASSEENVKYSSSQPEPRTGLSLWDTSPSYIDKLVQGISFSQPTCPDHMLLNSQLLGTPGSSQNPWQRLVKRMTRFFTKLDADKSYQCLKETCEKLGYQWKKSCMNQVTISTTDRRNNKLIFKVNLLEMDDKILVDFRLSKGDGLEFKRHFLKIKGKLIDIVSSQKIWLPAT
T2 sequence (Q00534 whole entry, species assumed): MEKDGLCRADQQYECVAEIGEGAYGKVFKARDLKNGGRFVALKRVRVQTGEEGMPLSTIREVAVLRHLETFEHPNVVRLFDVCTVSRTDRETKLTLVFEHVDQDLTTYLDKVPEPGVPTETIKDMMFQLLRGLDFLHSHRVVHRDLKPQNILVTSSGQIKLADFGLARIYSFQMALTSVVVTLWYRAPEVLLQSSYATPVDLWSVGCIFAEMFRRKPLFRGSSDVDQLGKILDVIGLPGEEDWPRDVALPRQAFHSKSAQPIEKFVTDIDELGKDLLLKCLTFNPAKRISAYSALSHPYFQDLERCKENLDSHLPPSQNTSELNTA
T2 sequence (P30281 whole entry partner, species assumed): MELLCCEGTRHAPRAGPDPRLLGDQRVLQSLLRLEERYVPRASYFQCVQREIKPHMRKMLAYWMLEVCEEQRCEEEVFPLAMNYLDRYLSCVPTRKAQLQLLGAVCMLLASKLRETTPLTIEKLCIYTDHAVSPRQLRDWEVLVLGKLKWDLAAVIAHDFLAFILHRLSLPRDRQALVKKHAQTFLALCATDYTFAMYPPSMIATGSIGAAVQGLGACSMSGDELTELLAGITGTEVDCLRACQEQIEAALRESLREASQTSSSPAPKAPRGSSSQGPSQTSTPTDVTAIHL
T1 sequence (P00519 whole entry, species assumed): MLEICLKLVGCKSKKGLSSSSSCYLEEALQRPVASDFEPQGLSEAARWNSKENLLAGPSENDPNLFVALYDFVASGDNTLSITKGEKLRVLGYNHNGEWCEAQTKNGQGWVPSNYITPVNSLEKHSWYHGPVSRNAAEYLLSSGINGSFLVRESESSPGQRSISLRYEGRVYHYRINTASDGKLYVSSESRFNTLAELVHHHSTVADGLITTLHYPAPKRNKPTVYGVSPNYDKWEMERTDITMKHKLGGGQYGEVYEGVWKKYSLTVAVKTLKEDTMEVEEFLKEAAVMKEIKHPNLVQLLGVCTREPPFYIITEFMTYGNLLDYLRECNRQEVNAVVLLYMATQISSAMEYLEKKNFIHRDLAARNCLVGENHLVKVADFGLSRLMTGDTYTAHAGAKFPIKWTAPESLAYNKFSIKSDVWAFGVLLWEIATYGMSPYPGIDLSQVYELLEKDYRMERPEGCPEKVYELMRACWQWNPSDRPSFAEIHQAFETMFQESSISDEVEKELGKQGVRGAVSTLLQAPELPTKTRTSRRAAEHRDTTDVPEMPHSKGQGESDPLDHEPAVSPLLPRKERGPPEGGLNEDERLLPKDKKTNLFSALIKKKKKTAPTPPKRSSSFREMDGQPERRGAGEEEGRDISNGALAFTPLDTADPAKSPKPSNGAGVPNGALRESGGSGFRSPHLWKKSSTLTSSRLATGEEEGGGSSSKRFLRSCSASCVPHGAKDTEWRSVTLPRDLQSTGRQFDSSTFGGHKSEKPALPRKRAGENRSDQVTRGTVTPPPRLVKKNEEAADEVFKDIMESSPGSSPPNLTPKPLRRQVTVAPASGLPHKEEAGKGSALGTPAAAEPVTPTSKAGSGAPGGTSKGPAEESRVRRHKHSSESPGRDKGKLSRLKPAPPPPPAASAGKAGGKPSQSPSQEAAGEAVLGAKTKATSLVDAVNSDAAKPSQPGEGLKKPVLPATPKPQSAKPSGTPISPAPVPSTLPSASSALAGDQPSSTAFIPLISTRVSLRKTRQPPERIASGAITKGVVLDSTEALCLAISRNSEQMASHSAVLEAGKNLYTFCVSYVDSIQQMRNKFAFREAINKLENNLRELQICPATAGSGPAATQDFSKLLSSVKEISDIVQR
T10 sequence (P04049 whole entry, species assumed): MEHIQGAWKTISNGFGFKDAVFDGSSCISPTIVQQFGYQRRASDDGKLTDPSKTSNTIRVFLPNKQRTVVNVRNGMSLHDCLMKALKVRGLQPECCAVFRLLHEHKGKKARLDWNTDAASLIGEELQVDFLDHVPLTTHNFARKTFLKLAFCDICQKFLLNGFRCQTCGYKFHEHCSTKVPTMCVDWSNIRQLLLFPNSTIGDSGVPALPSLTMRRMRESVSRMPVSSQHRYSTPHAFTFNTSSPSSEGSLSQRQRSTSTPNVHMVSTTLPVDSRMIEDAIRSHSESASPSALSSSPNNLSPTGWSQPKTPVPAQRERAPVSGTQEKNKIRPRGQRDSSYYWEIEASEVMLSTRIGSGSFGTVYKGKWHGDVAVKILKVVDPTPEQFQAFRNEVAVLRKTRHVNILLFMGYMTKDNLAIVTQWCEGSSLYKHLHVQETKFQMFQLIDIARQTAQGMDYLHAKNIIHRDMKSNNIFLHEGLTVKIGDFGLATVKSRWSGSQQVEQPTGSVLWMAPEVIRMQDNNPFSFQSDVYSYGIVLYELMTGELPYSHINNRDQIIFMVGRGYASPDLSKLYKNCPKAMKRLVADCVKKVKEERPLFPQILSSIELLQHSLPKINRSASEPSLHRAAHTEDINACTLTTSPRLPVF
T5 sequence (P45983 1-384 isoform P45983-2, species assumed): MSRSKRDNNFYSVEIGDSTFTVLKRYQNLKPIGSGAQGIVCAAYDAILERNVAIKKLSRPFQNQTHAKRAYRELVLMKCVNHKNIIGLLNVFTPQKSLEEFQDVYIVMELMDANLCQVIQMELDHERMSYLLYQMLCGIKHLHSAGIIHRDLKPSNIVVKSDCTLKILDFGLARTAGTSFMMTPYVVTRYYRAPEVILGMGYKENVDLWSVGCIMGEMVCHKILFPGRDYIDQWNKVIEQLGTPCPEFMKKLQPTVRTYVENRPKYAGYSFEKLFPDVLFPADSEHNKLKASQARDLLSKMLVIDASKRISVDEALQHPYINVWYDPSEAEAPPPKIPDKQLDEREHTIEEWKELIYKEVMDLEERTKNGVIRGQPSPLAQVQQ
T4 sequence (P36888 27-993, species assumed): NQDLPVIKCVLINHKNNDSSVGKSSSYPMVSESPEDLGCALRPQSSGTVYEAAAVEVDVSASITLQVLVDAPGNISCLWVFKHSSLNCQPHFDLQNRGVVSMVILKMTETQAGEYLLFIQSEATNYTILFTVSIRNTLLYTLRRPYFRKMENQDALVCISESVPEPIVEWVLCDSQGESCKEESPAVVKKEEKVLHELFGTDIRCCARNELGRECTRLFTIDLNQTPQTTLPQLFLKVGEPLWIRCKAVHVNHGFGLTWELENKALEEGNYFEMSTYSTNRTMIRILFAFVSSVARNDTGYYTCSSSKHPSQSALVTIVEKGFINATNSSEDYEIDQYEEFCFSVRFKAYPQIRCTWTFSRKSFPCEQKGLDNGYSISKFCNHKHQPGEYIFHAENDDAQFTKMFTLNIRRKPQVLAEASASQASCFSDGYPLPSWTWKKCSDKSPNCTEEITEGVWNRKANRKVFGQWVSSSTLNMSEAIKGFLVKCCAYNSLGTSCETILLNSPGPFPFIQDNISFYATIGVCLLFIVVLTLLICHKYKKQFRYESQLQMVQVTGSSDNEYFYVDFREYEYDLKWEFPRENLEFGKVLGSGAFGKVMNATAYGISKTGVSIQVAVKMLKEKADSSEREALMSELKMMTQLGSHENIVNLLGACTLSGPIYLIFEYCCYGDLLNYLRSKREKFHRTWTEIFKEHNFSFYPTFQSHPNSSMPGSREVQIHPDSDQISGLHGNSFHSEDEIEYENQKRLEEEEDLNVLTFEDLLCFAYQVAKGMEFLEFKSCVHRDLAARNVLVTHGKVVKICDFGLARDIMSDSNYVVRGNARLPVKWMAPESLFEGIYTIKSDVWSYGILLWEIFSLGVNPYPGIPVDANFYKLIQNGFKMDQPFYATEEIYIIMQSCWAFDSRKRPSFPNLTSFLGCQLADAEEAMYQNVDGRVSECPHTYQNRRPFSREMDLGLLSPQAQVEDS
T8 sequence (Q15418 whole entry, species assumed): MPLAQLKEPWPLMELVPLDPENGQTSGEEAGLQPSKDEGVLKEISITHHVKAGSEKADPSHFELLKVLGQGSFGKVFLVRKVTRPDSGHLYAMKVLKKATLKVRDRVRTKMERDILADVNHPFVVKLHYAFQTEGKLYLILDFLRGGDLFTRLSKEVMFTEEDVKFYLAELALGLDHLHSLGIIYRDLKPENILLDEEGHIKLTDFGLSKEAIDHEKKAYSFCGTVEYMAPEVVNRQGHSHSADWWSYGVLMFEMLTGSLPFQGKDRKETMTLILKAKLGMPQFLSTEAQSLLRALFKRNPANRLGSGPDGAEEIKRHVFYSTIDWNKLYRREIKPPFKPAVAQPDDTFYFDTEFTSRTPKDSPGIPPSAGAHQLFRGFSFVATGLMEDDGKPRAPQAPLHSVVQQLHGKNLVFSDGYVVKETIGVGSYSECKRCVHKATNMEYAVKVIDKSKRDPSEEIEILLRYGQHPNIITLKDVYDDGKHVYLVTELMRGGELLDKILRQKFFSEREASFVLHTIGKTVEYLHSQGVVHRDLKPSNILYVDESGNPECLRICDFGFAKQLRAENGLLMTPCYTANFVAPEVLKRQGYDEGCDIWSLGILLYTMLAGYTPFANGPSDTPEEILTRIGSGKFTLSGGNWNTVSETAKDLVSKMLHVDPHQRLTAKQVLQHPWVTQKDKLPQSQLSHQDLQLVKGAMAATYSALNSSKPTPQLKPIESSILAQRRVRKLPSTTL

In the case of `CC(C)(C)c1ccc(S(=O)(=O)NCc2ccc(C(=O)Nc3cccnc3)cc2)cc1` [STF-31], the “glucose uptake when HIF-1β was silenced in RCC4 cells” value [1] is reported as “insensitive”, the “3-series sensitivity (sensitivity to STF-31)” value (RCC4) is reported as “Yes” and the “Kinase response to STF-31” value (Abl) is reported as 108. For the same compound, the “Kinase response to STF-31” value (CDK6/cyclinD3) was 105, the “Kinase response to STF-31” value (CHK1) was 114 and the “Kinase response to STF-31” value (Flt3) was 111. For the same compound, the “Kinase response to STF-31” value (JNK1α1) was 101, the “Kinase response to STF-31” value (PDK1) was 105 and the “Kinase response to STF-31” value (PKA) was 96. The “Kinase response to STF-31” value (Rsk1) was 120, the “Kinase response to STF-31” value (Syk) was 94 and the “Kinase response to STF-31” value (c-RAF) was 103.
